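How tested: cells in 96-well plates exposed to compound for 48 hours at five concentrations. TGI denotes the concentration required for complete inhibition of growth.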
Experiments:
Assay in all cases: DTP human tumour cell line panel, 48 h
786-0 renal = test system: 786-0 renal
A498 renal = test system: A498 renal
A549 NSCLC = test system: A549 NSCLC
CAKI-1 renal = test system: CAKI-1 renal
CCRF-CEM leukemia = test system: CCRF-CEM leukemia
COLO 205 colon = test system: COLO 205 colon
DLD-1 colon = test system: DLD-1 colon
DMS 114 small cell lung = test system: DMS 114 small cell lung
DMS 273 small cell lung = test system: DMS 273 small cell lung
EKVX NSCLC = test system: EKVX NSCLC
HCC-2998 colon = test system: HCC-2998 colon
HCT-15 colon = test system: HCT-15 colon
HOP-18 NSCLC = test system: HOP-18 NSCLC
HOP-62 NSCLC = test system: HOP-62 NSCLC
HT29 colon = test system: HT29 colon
IGROV1 ovarian = test system: IGROV1 ovarian
K-562 leukemia = test system: K-562 leukemia
KM12 colon = test system: KM12 colon
KM20L2 colon = test system: KM20L2 colon
LOX IMVI melanoma = test system: LOX IMVI melanoma
LXFL 529 NSCLC = test system: LXFL 529 NSCLC
M14 melanoma = test system: M14 melanoma
M19-MEL melanoma = test system: M19-MEL melanoma
MALME-3M melanoma = test system: MALME-3M melanoma
MOLT-4 leukemia = test system: MOLT-4 leukemia
NCI-H23 lung = test system: NCI-H23 lung
NCI-H460 lung = test system: NCI-H460 lung
OVCAR-3 ovarian = test system: OVCAR-3 ovarian
OVCAR-4 ovarian = test system: OVCAR-4 ovarian
OVCAR-5 ovarian = test system: OVCAR-5 ovarian
OVCAR-8 ovarian = test system: OVCAR-8 ovarian
RPMI-8226 leukemia = test system: RPMI-8226 leukemia
RXF 393 renal = test system: RXF 393 renal
SF-268 CNS = test system: SF-268 CNS
SF-295 CNS = test system: SF-295 CNS
SF-539 CNS = test system: SF-539 CNS
SK-MEL-2 melanoma = test system: SK-MEL-2 melanoma
SK-MEL-28 melanoma = test system: SK-MEL-28 melanoma
SK-MEL-5 melanoma = test system: SK-MEL-5 melanoma
SK-OV-3 ovarian = test system: SK-OV-3 ovarian
SN12C renal = test system: SN12C renal
SNB-19 CNS = test system: SNB-19 CNS
SNB-75 CNS = test system: SNB-75 CNS
SNB-78 CNS = test system: SNB-78 CNS
SW-620 colon = test system: SW-620 colon
TK-10 renal = test system: TK-10 renal
U251 CNS = test system: U251 CNS
UACC-257 melanoma = test system: UACC-257 melanoma
UACC-62 melanoma = test system: UACC-62 melanoma
UO-31 renal = test system: UO-31 renal
XF 498 CNS = test system: XF 498 CNS
ACHN renal = test system: ACHN renal
HCT-116 colon = test system: HCT-116 colon
HL-60(TB) leukemia = test system: HL-60(TB) leukemia
HOP-92 NSCLC = test system: HOP-92 NSCLC
NCI-H226 lung = test system: NCI-H226 lung
NCI-H522 lung = test system: NCI-H522 lung
SR leukemia = test system: SR leukemia

## CCOC(=O)C(Sc1ccccc1)c1c(OC)cc(=O)oc1/C=[N+](/[O-])c1ccc(N(C)C)cc1 (stereo not drawn)
786-0 renal
  TGI: 42.4 µM
A498 renal
  TGI: > 100 µM
A549 NSCLC
  TGI: > 100 µM
CAKI-1 renal
  TGI: 32.1 µM
CCRF-CEM leukemia
  TGI: 15.4 µM
COLO 205 colon
  TGI: 45.4 µM
DLD-1 colon
  TGI: > 100 µM
DMS 114 small cell lung
  TGI: 42.9 µM
DMS 273 small cell lung
  TGI: 29 µM
EKVX NSCLC
  TGI: > 100 µM
HCC-2998 colon
  TGI: 58.7 µM
HCT-15 colon
  TGI: 31.8 µM
HOP-18 NSCLC
  TGI: 61.6 µM
HOP-62 NSCLC
  TGI: > 100 µM
HT29 colon
  TGI: 31.4 µM
IGROV1 ovarian
  TGI: > 100 µM
K-562 leukemia
  TGI: 23.8 µM
KM12 colon
  TGI: 47.4 µM
KM20L2 colon
  TGI: 89.2 µM
LOX IMVI melanoma
  TGI: 26.6 µM
LXFL 529 NSCLC
  TGI: 27.2 µM
M14 melanoma
  TGI: 31.1 µM
M19-MEL melanoma
  TGI: 37.5 µM
MALME-3M melanoma
  TGI: 58.5 µM
MOLT-4 leukemia
  TGI: 37.9 µM
NCI-H23 lung
  TGI: 78.5 µM
NCI-H460 lung
  TGI: 82.5 µM
OVCAR-3 ovarian
  TGI: 26 µM
OVCAR-4 ovarian
  TGI: 51.6 µM
OVCAR-5 ovarian
  TGI: 83.1 µM
OVCAR-8 ovarian
  TGI: 44.2 µM
RPMI-8226 leukemia
  TGI: 48 µM
RXF 393 renal
  TGI: 32.5 µM
SF-268 CNS
  TGI: > 100 µM
SF-295 CNS
  TGI: 67 µM
SF-539 CNS
  TGI: 56.9 µM
SK-MEL-2 melanoma
  TGI: 77.5 µM
SK-MEL-28 melanoma
  TGI: 37 µM
SK-MEL-5 melanoma
  TGI: 44.9 µM
SK-OV-3 ovarian
  TGI: > 100 µM
SN12C renal
  TGI: 32 µM
SNB-19 CNS
  TGI: > 100 µM
SNB-75 CNS
  TGI: 76.4 µM
SNB-78 CNS
  TGI: 78.9 µM
SW-620 colon
  TGI: 32.2 µM
TK-10 renal
  TGI: 89.5 µM
U251 CNS
  TGI: 60.7 µM
UACC-257 melanoma
  TGI: 28.7 µM
UACC-62 melanoma
  TGI: 51.8 µM
UO-31 renal
  TGI: 41.9 µM
XF 498 CNS
  TGI: 27.7 µM

## CC(C)=CCCc1c(C)ccc2c1C(=O)C(=O)C(C(C)C)=C2
786-0 renal
  TGI: 7.07 µM
A498 renal
  TGI: > 22 µM
A549 NSCLC
  TGI: > 22 µM
ACHN renal
  TGI: 6.84 µM
CAKI-1 renal
  TGI: 7.79 µM
CCRF-CEM leukemia
  TGI: 1.9 µM
COLO 205 colon
  TGI: > 22 µM
DLD-1 colon
  TGI: 6.51 µM
DMS 114 small cell lung
  TGI: 9.36 µM
DMS 273 small cell lung
  TGI: 7.47 µM
EKVX NSCLC
  TGI: > 22 µM
HCC-2998 colon
  TGI: > 22 µM
HCT-116 colon
  TGI: 6.55 µM
HCT-15 colon
  TGI: 7.14 µM
HL-60(TB) leukemia
  TGI: 5.03 µM
HOP-18 NSCLC
  TGI: 8.12 µM
HOP-92 NSCLC
  TGI: 6.43 µM
HT29 colon
  TGI: > 22 µM
IGROV1 ovarian
  TGI: > 22 µM
K-562 leukemia
  TGI: 8.08 µM
KM12 colon
  TGI: > 22 µM
KM20L2 colon
  TGI: > 22 µM
LXFL 529 NSCLC
  TGI: 6.65 µM
M14 melanoma
  TGI: 7.95 µM
M19-MEL melanoma
  TGI: 7.87 µM
MALME-3M melanoma
  TGI: 6.78 µM
MOLT-4 leukemia
  TGI: 20 µM
NCI-H226 lung
  TGI: > 22 µM
NCI-H23 lung
  TGI: 8.52 µM
NCI-H460 lung
  TGI: > 22 µM
NCI-H522 lung
  TGI: 6.39 µM
OVCAR-3 ovarian
  TGI: 7.36 µM
OVCAR-4 ovarian
  TGI: 8.81 µM
OVCAR-8 ovarian
  TGI: 7 µM
RPMI-8226 leukemia
  TGI: 6.16 µM
RXF 393 renal
  TGI: 6.79 µM
SF-268 CNS
  TGI: 11.8 µM
SF-295 CNS
  TGI: > 22 µM
SF-539 CNS
  TGI: 8.84 µM
SK-MEL-2 melanoma
  TGI: 8.14 µM
SK-MEL-28 melanoma
  TGI: 6.92 µM
SK-MEL-5 melanoma
  TGI: > 22 µM
SK-OV-3 ovarian
  TGI: > 22 µM
SN12C renal
  TGI: > 22 µM
SNB-19 CNS
  TGI: > 22 µM
SNB-75 CNS
  TGI: > 22 µM
SR leukemia
  TGI: 14.9 µM
SW-620 colon
  TGI: 7.05 µM
TK-10 renal
  TGI: 8.81 µM
U251 CNS
  TGI: > 22 µM
UO-31 renal
  TGI: > 22 µM
XF 498 CNS
  TGI: 7.15 µM
